From patent publication US20050043280A1, “Use of active ingredients having a mu-opioid receptor agonist action and an opiod receptor antognist action, as combination drugs for the treatment of cancer” (priority 2001, published 2005)

Experiments:
MCF-7 cells [1] = assay: Cytotoxic effects, survival rate of the cells (FIG. 3B); conditions: standardized to untreated control cells = 100%; combinations with 100 μmol DAMGO
Description: The same cell line was used to determine the cytotoxic effects of these active ingredients by determining the rate of survival of the cells (FIG. 3B). […] TNFα was used as a positive control.
The survival rate was standardized to the number of untreated control cells representing 100%. Means±SEM from 4 repeat experiments.

MCF-7 cells [2] = assay: DNA cleavage rate with apoptosis assay kit (FIG. 4); assay type: cell-based, human; conditions: 500 μmol; incubation for 24 hours
Description: In order to characterize apoptosis (cell death) in more detail, a commercial apoptosis assay kit that is in common use in science was used to measure the rate of DNA cleavage (FIG. 4).
FIG. 4 DNA cleavage rate after incubation of MCF-7 cells for 24 hours with the active ingredients at the dosages indicated on the abscissa. Means±SEM from 6 independent experiments. DNA cleavage was measured by assaying the mono- and oligonucleosomes with an apoptosis detection kit containing antihistones and anti-DNA antibodies.

[3] = test system: human MCF-7 breast cancer cells; assay: Cell proliferation test (FIG. 3A); assay type: cell-based; conditions: for proliferation of MCF-7 cells compared to the untreated control: 100 or 500 μmol DAMGO, 100 μmol naloxone, 500 μmol DAMGO+100 μmol naloxone
Description: FIG. 3A Proliferation of MCF-7 cells in vitro after treatment with 100 μmol DAMGO (solid triangles), 500 μmol DAMGO (solid squares)(left), 100 μmol naloxone (open circles) or the mixture containing 500 μmol DAMGO+100 μmol naloxone (open triangles)(right) versus untreated control cells (solid circles). Means±SEM from 4-6 repeat experiments.

MCF-7 cells [4] = assay: Flow cytometry of annexin V and 7-AAD binding, apoptosis rate (FIG. 6); assay type: cell-based, human
[5] = Development of the body weight during treatment (FIG. 1B); conditions: 3 weeks of treatment as in FIG. 1A
Description: In an established pharmacological animal model, naked mice (NMRI-nu/nu; Harlan, Borchen) received a subcutaneous injection containing a cell suspension (5×10^6 cells in 300 μl per mouse) of human breast carcinoma cells (MCF-7 cell line).
A total of 5×10^6 cells were injected subcutaneously per mouse. […] The animals were treated with 10 mg/kg β-estradiol valerate (i.m.) one day before and 7 and 14 days after the injection of tumor cells. […] Tumor volume=(long diameter×short diameter^2)/2.
FIG. 1B Development of the body weight during treatment. Treatment as in 1A.

MCF-7 cells [6] = conditions: 24 hours after treatment; 0.5, 1.0, 2.0 mmol; combination 0.5 mmol morphine+0.1 mmol naloxone and 1 mmol+1 mmol
MCF-7 cells [7] = conditions: cited from earlier work
[8] = 1 mmol, 24 hours after treatment (not shown)
[9] = 2 mmol, 24 hours after treatment
[10] = 3 mmol, 24 hours after treatment

Compound | survival rate of MCF-7 cells (cytotoxic effect) (MCF-7 cells [1]) | rate of DNA cleavage compared to the untreated control (MCF-7 cells [2]) | proliferation of MCF-7 cells compared to the untreated control [3] | time at which the maximal number of cells was attained ([3]; DAMGO-treated cultures) | cell death in treated cultures ([3]; between 48 and 72 hours) | number of cells in late apoptosis (MCF-7 cells [4]; [8]) | number of cells in late apoptosis (MCF-7 cells [4]; [9]) | number of cells in late apoptosis (MCF-7 cells [4]; [10]) | body weight [5] | number of cells in G1 phase (block of cell cycle from G1 to S phase) (MCF-7 cells [6]) | apoptosis in MCF-7 cells (positive control, known effect) (MCF-7 cells [7])
C[C@@H](NC(=O)[C@@H](N)Cc1ccc(O)cc1)C(=O)NCC(=O)N(C)[C@@H](Cc1ccccc1)C(=O)NCCO [DAMGO, (D-Ala2, N-Methyl-Phe4, Gly-ol5)enkephalin] | concentration-dependent positive effect on the survival rate | increase significantly | reduced the cell division cycle substantially in a concentration-dependent fashion | 48 h | a fraction of the cells on DAMGO treatment died | – | – | – | – | – | –
CN1CC[C@]23c4c5ccc(O)c4O[C@H]2[C@@H](O)C=C[C@H]3[C@H]1C5 [morphine] | – | – | – | – | – | no longer detectable | less pronounced | clear increase in the number of cells in late apoptosis | weight loss | concentration-dependent increase in the number of cells in G1 phase | –
TNFα | – | – | – | – | – | – | – | – | – | – | induce apoptosis
C=CCN1CC[C@]23c4c5ccc(O)c4O[C@H]2C(=O)CC[C@@]3(O)[C@H]1C5 [naloxone] | concentration-dependent positive effect on the survival rate | increase significantly | growth-inhibitory effect | – | – | no longer detectable | less pronounced | clear increase in the number of cells in late apoptosis | increased slightly | block the cell cycle in a similar fashion | –
